From patent US9346809B2 (LEO PHARMA A/S, priority 2009, dated 2016)
pEC50: −log10 of the molar value. Like-named read-outs stand apart in the source and are kept apart here.

Columns and labels:
Assay type in all cases: biochemical
[1] = biological target: T1, JAK2 (catalytic domain, His-tag) (Homo sapiens, UniProt O60674); experiment: JAK kinase assay (HTRF, phosphorylation of TK substrate-biotin), JAK2; settings: ATP at Km (4 μM)
T1 construct: All four purified enzymes contain only the catalytic domain; His (N); purchased Carna Biosciences, Inc; host or cells: baculovirus expression system
T1 sequence (O60674 849-1124 limits assumed): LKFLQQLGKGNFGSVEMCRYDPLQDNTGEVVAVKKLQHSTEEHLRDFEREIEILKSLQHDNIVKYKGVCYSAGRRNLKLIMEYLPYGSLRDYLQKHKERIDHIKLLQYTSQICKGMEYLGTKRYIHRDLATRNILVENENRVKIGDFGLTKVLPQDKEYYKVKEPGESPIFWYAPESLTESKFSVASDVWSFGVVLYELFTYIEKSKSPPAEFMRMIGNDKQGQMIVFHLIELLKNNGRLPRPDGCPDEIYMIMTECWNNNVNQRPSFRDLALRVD
Procedure, shortened: (§1)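 Catalytic-domain kinases phosphorylated 1 μM biotin-TK substrate at ATP Km (JAK1 7 μM, JAK2 4 μM, JAK3 2 μM, TYK2 13 μM) in Hepes pH 7.0 with DTT and MgCl2, for 20-30 min at RT; JAK1 and TYK2 also had 50 nM SEB. Detection was by HTRF (streptavidin-XL665/Cryptate antibody) overnight, giving EC50.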

[2] = biological target: T2, JAK1 (aa 850-1154, catalytic domain, GST-tag) (Homo sapiens, UniProt P23458); experiment: JAK kinase assay (HTRF, phosphorylation of TK substrate-biotin), JAK1; settings: ATP at Km (7 μM)
T2 construct: JAK1 (aa 850-1154) and TYK2 (aa 871-1187) are expressed with an N-terminally fused GST-tag; GST (N); purchased Carna Biosciences, Inc; host or cells: baculovirus expression system
T2 sequence (P23458 850-1154): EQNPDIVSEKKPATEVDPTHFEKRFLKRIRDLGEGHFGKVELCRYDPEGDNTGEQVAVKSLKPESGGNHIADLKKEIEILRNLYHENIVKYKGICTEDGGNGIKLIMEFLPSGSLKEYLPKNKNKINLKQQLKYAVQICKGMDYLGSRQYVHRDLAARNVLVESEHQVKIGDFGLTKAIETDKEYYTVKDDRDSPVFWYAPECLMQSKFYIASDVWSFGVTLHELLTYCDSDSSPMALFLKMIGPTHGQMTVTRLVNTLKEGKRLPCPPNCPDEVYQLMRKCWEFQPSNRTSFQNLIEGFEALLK
Procedure, shortened: as §1

[3] = biological target: T3, TYK2 (aa 871-1187, catalytic domain, GST-tag) (Homo sapiens, UniProt P29597); experiment: JAK kinase assay (HTRF, phosphorylation of TK substrate-biotin), TYK2; settings: ATP at Km (13 μM)
T3 construct: JAK1 (aa 850-1154) and TYK2 (aa 871-1187) are expressed with an N-terminally fused GST-tag; GST (N); purchased Carna Biosciences, Inc; host or cells: baculovirus expression system
T3 sequence (P29597 871-1187): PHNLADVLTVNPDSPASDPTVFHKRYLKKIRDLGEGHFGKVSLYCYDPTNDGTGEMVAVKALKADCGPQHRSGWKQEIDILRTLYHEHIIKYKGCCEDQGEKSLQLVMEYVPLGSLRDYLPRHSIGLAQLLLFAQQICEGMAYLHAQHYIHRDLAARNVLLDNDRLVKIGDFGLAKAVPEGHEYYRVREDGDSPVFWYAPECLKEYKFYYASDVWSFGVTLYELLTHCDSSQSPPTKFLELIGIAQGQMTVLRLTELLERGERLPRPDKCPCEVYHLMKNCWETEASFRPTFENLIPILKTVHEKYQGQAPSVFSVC
Procedure, shortened: as §1

[4] = biological target: T4, JAK3 (catalytic domain, His-tag) (Homo sapiens, UniProt P52333); experiment: JAK kinase assay (HTRF, phosphorylation of TK substrate-biotin), JAK3; settings: ATP at Km (2 μM)
T4 construct: All four purified enzymes contain only the catalytic domain; His (N); purchased Carna Biosciences, Inc; host or cells: baculovirus expression system
T4 sequence (P52333 822-1111 limits assumed): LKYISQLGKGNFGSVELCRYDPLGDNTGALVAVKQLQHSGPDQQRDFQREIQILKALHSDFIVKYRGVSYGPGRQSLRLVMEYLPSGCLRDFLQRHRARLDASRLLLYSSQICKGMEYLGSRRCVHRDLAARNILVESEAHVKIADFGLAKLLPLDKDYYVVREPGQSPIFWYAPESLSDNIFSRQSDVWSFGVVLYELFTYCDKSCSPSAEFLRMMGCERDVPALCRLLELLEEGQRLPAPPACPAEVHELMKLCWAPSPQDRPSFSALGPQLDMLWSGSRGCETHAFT
Procedure, shortened: as §1

[5] = read-out: JAK2 kinase inhibitory activity (EC50 indicator)
[6] = read-out: JAK1 kinase inhibitory activity (EC50 indicator)
[7] = read-out: TYK2 kinase inhibitory activity (EC50 indicator)
[8] = read-out: JAK3 kinase inhibitory activity (EC50 indicator)
[9] = HTRF assay, read-out: JAK2 kinase inhibitory activity (EC50 indicator)
[10] = HTRF assay, read-out: JAK1 kinase inhibitory activity (EC50 indicator)
[11] = HTRF assay, read-out: TYK2 kinase inhibitory activity (EC50 indicator)
[12] = HTRF assay, read-out: JAK3 kinase inhibitory activity (EC50 indicator)

| Compound | pEC50 [1, 5] | pEC50 [2, 6] | pEC50 [3, 7] | pEC50 [4, 8] | pEC50 [1, 9] | pEC50 [2, 10] | pEC50 [3, 11] | pEC50 [4, 12] | also measured |
| --- | --- | --- | --- | --- | --- | --- | --- | --- | --- |
| N#CCCC(=O)N1CCN(c2ncnc3[nH]ccc23)CC12CC2 [Example 167, 4-Oxo-4-[7-(7H-pyrrolo[2,3-d]pyrimidin-4-yl)-4,7-diaza-spiro[2.5]oct-4-yl]-butyronitrile] | > 7.00 | > 7.00 | 6.30 to 7.00 | > 7.00 |  |  |  |  |  |
| CC(=O)N1CCC(C(=O)N2CCN(c3ncnc4[nH]ccc34)CC23CC3)CC1 [Example 43, 1-{4-[7-(7H-Pyrrolo[2,3-d]pyrimidin-4-yl)-4,7-diazaspiro[2.5]octane-4-carbonyl]piperidin-1-yl}ethanone] | 6.30 to 7.00 | 6.30 to 7.00 | < 6.30 | 6.30 to 7.00 |  |  |  |  |  |
| O=C(c1ccc(C(F)(F)F)cc1)N1[C@@H]2CC[C@H]1CN(c1ncnc3[nH]ccc13)C2 [Example 1, [3-(7H-Pyrrolo[2,3-d]pyrimidin-4-yl)-3,8-diazabicyclo[3.2.1]oct-8-yl]-(4-trifluoromethylphenyl)methanone] | 6.30 to 7.00 | > 7.00 | < 6.30 | < 6.30 |  |  |  |  |  |
| Cn1cc(S(N)(=O)=O)cc1C(=O)N1C2CCC1CN(c1ncnc3[nH]ccc13)C2 [Example 142, 1-Methyl-5-[3-(7H-pyrrolo[2,3-d]pyrimidin-4-yl)-3,8-diaza-bicyclo[3.2.1]octane-8-carbonyl]-1H-pyrrole-3-sulfonic acid amide] | > 7.00 | > 7.00 | 6.30 to 7.00 | > 7.00 |  |  |  |  |  |
| O=C(c1cccc(OC(F)(F)F)c1)N1CCN(c2ncnc3[nH]ccc23)CC12CC2 [Example 160, [7-(7H-Pyrrolo[2,3-d]pyrimidin-4-yl)-4,7-diaza-spiro[2.5]oct-4-yl]-(3-trifluoromethoxy-phenyl)-methanone] | > 7.00 | > 7.00 | 6.30 to 7.00 | 6.30 to 7.00 |  |  |  |  |  |
| N#Cc1cccc(CS(=O)(=O)N2CCN(c3ncnc4[nH]ccc34)CC23CC3)c1 [Example 76, 3-[7-(7H-Pyrrolo[2,3-d]pyrimidin-4-yl)-4,7-diaza-spiro[2.5]octane-4-sulfonylmethyl]-benzonitrile] | > 7.00 | > 7.00 | < 6.30 | 6.30 to 7.00 |  |  |  |  |  |
| N#Cc1ccc(CC(=O)N2CCN(c3nc(NC(=O)c4ccccc4)nc4[nH]ccc34)CC23CC3)cc1 [Example 98, N-(4-{4-[2-(4-Cyano-phenyl)-acetyl]-4,7-diaza-spiro[2.5]oct-7-yl}-7H-pyrrolo[2,3-d]pyrimidin-2-yl)-benzamide] | < 6.30 | < 6.30 | < 6.30 | < 6.30 |  |  |  |  |  |
| N#CCc1ccc(C(=O)N2[C@@H]3CC[C@@H]2CN(c2ncnc4[nH]ccc24)C3)cc1 [Example 175, {4-[3-(7H-Pyrrolo[2,3-d]pyrimidin-4-yl)-3,8-diaza-bicyclo[3.2.1]octane-8-carbonyl]-phenyl}-acetonitrile] | > 7.00 | > 7.00 | < 6.30 | 6.30 to 7.00 |  |  |  |  |  |
| COCC(=O)N1CCN(c2ncnc3[nH]ccc23)CC12CC2 [Example 443, 2-Methoxy-1-[7-(7H-pyrrolo[2,3-d]pyrimidin-4-yl)-4,7-diaza-spiro[2.5]oct-4-yl]-ethanone] |  |  |  |  |  |  |  |  | pEC50 ([1]; HTRF assay, read-out: JAK2 kinase inhibitory activity (EC50)): > 7.00; pEC50 ([2]; HTRF assay, read-out: JAK1 kinase inhibitory activity (EC50)): > 7.00; pEC50 ([3]; HTRF assay, read-out: TYK2 kinase inhibitory activity (EC50)): < 6.30; pEC50 ([4]; HTRF assay, read-out: JAK3 kinase inhibitory activity (EC50)): < 6.30 |
| CC(=O)NCC(=O)N1[C@@H]2CC[C@@H]1CN(c1ncnc3[nH]ccc13)C2 [Example 34, N-{2-Oxo-2-[3-(7H-pyrrolo[2,3-d]pyrimidin-4-yl)-3,8-diaza-bicyclo[3.2.1]oct-8-yl]-ethyl}acetamide] | < 6.30 | < 6.30 | < 6.30 | < 6.30 |  |  |  |  |  |
| CC(=O)Nc1nc(N2CCN(C(=O)Cc3ccc(C#N)cc3)C3(CC3)C2)c2cc[nH]c2n1 [Example 93, N-(4-{4-[2-(4-Cyano-phenyl)-acetyl]-4,7-diaza-spiro[2.5]oct-7-yl}-7H-pyrrolo[2,3-d]pyrimidin-2-yl)-acetamide] | > 7.00 | > 7.00 | 6.30 to 7.00 | > 7.00 |  |  |  |  |  |
| O=C(CC(F)(F)F)N1[C@@H]2CC[C@H]1CN(c1ncnc3[nH]ccc13)C2 [Example 40, 3,3,3-Trifluoro-1-[3-(7H-pyrrolo[2,3-d]pyrimidin-4-yl)-3,8-diaza-bicyclo[3.2.1]oct-8-yl]propan-1-one] | 6.30 to 7.00 | 6.30 to 7.00 | < 6.30 | < 6.30 |  |  |  |  |  |

The next lines start with results.

| pEC50 [1, 5] | pEC50 [2, 6] | pEC50 [3, 7] | pEC50 [4, 8] | pEC50 [1, 9] | pEC50 [2, 10] | pEC50 [3, 11] | pEC50 [4, 12] | Compound | also measured |
| --- | --- | --- | --- | --- | --- | --- | --- | --- | --- |
|  |  |  |  | > 7.00 | > 7.00 | 6.30 to 7.00 | 6.30 to 7.00 | O=C(c1ccc(-c2ccccc2)s1)N1CCN(c2ncnc3[nH]ccc23)CC12CC2 [Example 215, (5-Phenyl-thiophen-2-yl)-[7-(7H-pyrrolo[2,3-d]pyrimidin-4-yl)-4,7-diaza-spiro[2.5]oct-4-yl]-methanone] |  |
|  |  |  |  | > 7.00 | > 7.00 | > 7.00 | > 7.00 | Cc1sc(C(=O)N2CCN(c3ncnc4[nH]ccc34)CC23CC3)cc1S(N)(=O)=O [Example 374, 2-Methyl-5-[7-(7H-pyrrolo[2,3-d]pyrimidin-4-yl)-4,7-diaza-spiro[2.5]octane-4-carbonyl]-thiophene-3-sulfonic acid amide] |  |
| > 7.00 | > 7.00 | > 7.00 | > 7.00 |  |  |  |  | Cn1c(C(=O)N2CCN(c3ncnc4[nH]ccc34)CC23CC3)ccc1S(N)(=O)=O [Example 187, 1-Methyl-5-[7-(7H-pyrrolo[2,3-d]pyrimidin-4-yl)-4,7-diaza-spiro[2.5]octane-4-carbonyl]-1H-pyrrole-2-sulfonic acid amide] |  |
|  |  |  |  | > 7.00 | > 7.00 | > 7.00 | > 7.00 | COc1cc(C(=O)N2CCN(c3ncnc4[nH]ccc34)CC23CC3)cs1 [Example 384, (5-Methoxy-thiophen-3-yl)-[7-(7H-pyrrolo[2,3-d]pyrimidin-4-yl)-4,7-diaza-spiro[2.5]oct-4-yl]-methanone] |  |
|  |  |  |  | 6.30 to 7.00 | < 6.30 | < 6.30 | 6.30 to 7.00 | COc1cnc2[nH]ccc2c1N1CCN(C(=O)c2cnccn2)C2(CC2)C1 [Example 285, [7-(5-Methoxy-1H-pyrrolo[2,3-b]pyridin-4-yl)-4,7-diaza-spiro[2.5]oct-4-yl]-pyrazin-2-yl-methanone] |  |
|  |  |  |  | > 7.00 | > 7.00 | > 7.00 | > 7.00 | Cc1cncc(C(=O)N2CCN(c3ncnc4[nH]ccc34)CC23CC3)n1 [Example 418, (6-Methyl-pyrazin-2-yl)-[7-(7H-pyrrolo[2,3-d]pyrimidin-4-yl)-4,7-diaza-spiro[2.5]oct-4-yl]-methanone] |  |
|  |  |  |  | > 7.00 | 6.30 to 7.00 | < 6.30 | 6.30 to 7.00 | Nc1nc(N2CCN(C(=O)c3cnccn3)C3(CC3)C2)c2cc[nH]c2n1 [Example 302, [7-(2-Amino-7H-pyrrolo[2,3-d]pyrimidin-4-yl)-4,7-diaza-spiro[2.5]oct-4-yl]-pyrazin-2-yl-methanone] |  |
|  |  |  |  | 6.30 to 7.00 | 6.30 to 7.00 | < 6.30 | 6.30 to 7.00 | N#CCC(=O)N1CCN(c2ccnc3[nH]ccc23)CC12CC2 [Example 220, 3-Oxo-3-[7-(1H-pyrrolo[2,3-b]pyridin-4-yl)-4,7-diaza-spiro[2.5]oct-4-yl]-propionitrile] |  |
